Laboratory results published in article PMC7064401 (Journal of molecular microbiology and biotechnology, 2019).

Biological target: BexImpX (Pseudobdellovibrio exovorus, UniProt M4VA25)
Assay: inhibition of riboflavin uptake in E. coli expressing impX, fluorescence
Type: cell-based
Conditions: read-out: % inhibition at 0.9 mM

Structure (SMILES) | inhibition at 900 µM [%]
NC(=O)c1cccnc1 [nicotinamide] | < 5
Cc1ncc(C[n+]2csc(CCOP(=O)(O)OP(=O)(O)O)c2C)c(N)n1 [thiamine pyrophosphate] | < 5
